Data on 57 compounds can be found in BindingDB's records for doi:10.1021/cb700200w (Novartis, 2008).

This assay addresses T1, Aurora kinase A (Homo sapiens, UniProt O14965).
T1 sequence (O14965 whole entry): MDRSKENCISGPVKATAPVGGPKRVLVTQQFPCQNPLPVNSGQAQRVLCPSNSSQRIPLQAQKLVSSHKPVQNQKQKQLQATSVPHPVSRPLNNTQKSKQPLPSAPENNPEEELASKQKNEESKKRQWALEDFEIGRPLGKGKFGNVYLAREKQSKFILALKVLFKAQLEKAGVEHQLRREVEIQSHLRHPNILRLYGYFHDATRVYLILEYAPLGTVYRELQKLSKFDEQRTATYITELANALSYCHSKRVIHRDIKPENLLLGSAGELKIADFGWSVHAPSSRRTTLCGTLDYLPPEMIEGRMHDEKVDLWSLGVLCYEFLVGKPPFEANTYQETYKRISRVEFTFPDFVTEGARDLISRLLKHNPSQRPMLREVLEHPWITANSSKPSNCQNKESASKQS
As to the kind of experiment: Aurora Kinase SPA Assay. The protocol:
The biochemical activity of compounds was determined by incubation with Aurora A and substrates in the presence ATP/[gamma-33P] ATP. After incubation, the reaction was stopped and the phosphorylated substrate was separated from nonincorporated radioactive ATP using SPA beads (Amersham Pharmacia Biotech), counted using TopCount (Packard) to measure substrate-incorporated phosphate.

pIC50: −log10 of the molar value.

Consider `Nc1ccc(Nc2ncc(Br)s2)cc1` [1-N-(5-bromo-1,3-thiazol-2-yl)benzene-1,4-diamine], for which, where the note is “pH 7, 22 °C”, the pIC50 (in general, the negative decadic logarithm of the IC50, by convention in mol/L) was 6.22.
The same measure, in the same setting: the result for `CC(=O)c1ccc(Nc2ncc(Br)s2)cc1` [1-{4-[(5-bromo-1,3-thiazol-2-yl)amino]phenyl}ethan-1-one] reads 5.77.
`CCN1CCN(Cc2ccc(Nc3ncc(C#N)s3)nc2)CC1` [2-({5-[(4-ethylpiperazin-1-yl)methyl]pyridin-2-yl}amino)-1,3-thiazole-5-carbonitrile] had a pIC50 of 5.36.
The same measure, in the same setting: for `CN1CCN(Cc2ccc(Nc3ncc(C#N)s3)nc2)CC1` [2-({5-[(4-methylpiperazin-1-yl)methyl]pyridin-2-yl}amino)-1,3-thiazole-5-carbonitrile] the value was 5.42; for `N#Cc1cnc(Nc2ccc(CN3CCN(CCO)CC3)cn2)s1` [2-[(5-{[4-(2-hydroxyethyl)piperazin-1-yl]methyl}pyridin-2-yl)amino]-1,3-thiazole-5-carbonitrile], 5.27; for `N#Cc1cnc(Nc2ccc(CN3CCOCC3)cn2)s1` [2-{[5-(morpholin-4-ylmethyl)pyridin-2-yl]amino}-1,3-thiazole-5-carbonitrile], 5.85.
Still for that read-out and setting: for `O=C(Nc1ccccc1)Nc1ncc(Br)s1` [3-(5-bromo-1,3-thiazol-2-yl)-1-phenylurea] the value was under 5.00; for `COCCNC(=O)c1cccc(Nc2ncc(Br)s2)c1` [3-[(5-bromo-1,3-thiazol-2-yl)amino]-N-(2-methoxyethyl)benzamide], 5.91; for `CNC(=O)c1cccc(Nc2ncc(Br)s2)c1` [3-[(5-bromo-1,3-thiazol-2-yl)amino]-N-methylbenzamide], 6.13.
On the same count and under the same terms, for `O=C(O)c1cccc(Nc2ncc(Br)s2)c1` [3-[(5-bromo-1,3-thiazol-2-yl)amino]benzoic acid] the value was 6.36; for `N#Cc1cccc(Nc2ncc(Br)s2)c1` [3-[(5-bromo-1,3-thiazol-2-yl)amino]benzonitrile], 5.82; for `CNC(=O)N1CCN(Cc2ccc(Nc3ncc(C#N)s3)nc2)CC1` [4-({6-[(5-cyano-1,3-thiazol-2-yl)amino]pyridin-3-yl}methyl)-N-methylpiperazine-1-carboxamide], 6.06.
`COCC(C)NC(=O)c1ccc(Nc2ncc(Br)s2)cc1` (configuration not stated) [4-[(5-bromo-1,3-thiazol-2-yl)amino]-N-(1-methoxypropan-2-yl)benzamide]: the negative logarithm of the IC50 (pIC50) (pH 7, 22 °C) was 6.48.
Still for that read-out and setting: for `O=C(NCCO)c1ccc(Nc2ncc(Br)s2)cc1` [4-[(5-bromo-1,3-thiazol-2-yl)amino]-N-(2-hydroxyethyl)benzamide] the value was 5.83; for `COCCN(C)C(=O)c1ccc(Nc2ncc(Br)s2)cc1` [4-[(5-bromo-1,3-thiazol-2-yl)amino]-N-(2-methoxyethyl)-N-methylbenzamide], 6.01; for `COCCNC(=O)c1ccc(Nc2ncc(Br)s2)cc1` [4-[(5-bromo-1,3-thiazol-2-yl)amino]-N-(2-methoxyethyl)benzamide], 7.01.
For `CCN(CC)CCNC(=O)c1ccc(Nc2ncc(Br)s2)cc1` [4-[(5-bromo-1,3-thiazol-2-yl)amino]-N-[2-(diethylamino)ethyl]benzamide], the negative-log IC50 (pIC50) is 5.34.
On the same count and under the same terms, the result for `CN(C)CCNC(=O)c1ccc(Nc2ncc(Br)s2)cc1` [4-[(5-bromo-1,3-thiazol-2-yl)amino]-N-[2-(dimethylamino)ethyl]benzamide] reads 5.28; that for `O=C(NCCN1CCOCC1)c1ccc(Nc2ncc(Br)s2)cc1` [4-[(5-bromo-1,3-thiazol-2-yl)amino]-N-[2-(morpholin-4-yl)ethyl]benzamide], 5.64.
The same measure, in the same setting: the result for `O=C(NCCN1CCCC1)c1ccc(Nc2ncc(Br)s2)cc1` [4-[(5-bromo-1,3-thiazol-2-yl)amino]-N-[2-(pyrrolidin-1-yl)ethyl]benzamide] reads 5.27.
On to `N#Cc1ccc(Nc2ncc(Br)s2)cc1` [4-[(5-bromo-1,3-thiazol-2-yl)amino]benzonitrile], for which the negative logarithm of the IC50 (pIC50) (pH 7, 22 °C) is 5.68.
The same measure, in the same setting: for `Oc1ccc(Nc2ncc(Br)s2)cc1` [4-[(5-bromo-1,3-thiazol-2-yl)amino]phenol] the value was 6.29; for `Fc1ccc(Nc2nc(Br)cs2)cc1` [4-bromo-N-(4-fluorophenyl)-1,3-thiazol-2-amine], under 5.00.
`Nc1ncc(Br)s1` [5-bromo-1,3-thiazol-2-amine] had a negative logarithm of the IC50 (pIC50) of under 5.00.
Consider `Fc1ccc(Nc2ncc(Br)s2)c(F)c1` [5-bromo-N-(2,4-difluorophenyl)-1,3-thiazol-2-amine], for which the negative-log IC50 (pIC50) was under 5.00.
The same measure, in the same setting: the result for `Fc1ccc(F)c(Nc2ncc(Br)s2)c1` [5-bromo-N-(2,5-difluorophenyl)-1,3-thiazol-2-amine] reads under 5.00.
In turn, `Fc1ccccc1Nc1ncc(Br)s1` [5-bromo-N-(2-fluorophenyl)-1,3-thiazol-2-amine] showed a pIC50 of 5.26.
Turning to `COc1ccccc1Nc1ncc(Br)s1` [5-bromo-N-(2-methoxyphenyl)-1,3-thiazol-2-amine], the negative logarithm of the IC50 (pIC50) was 5.57. Against the preceding compound, the pIC50 is 0.31 log units higher.
Still for that read-out and setting: the result for `Cc1ccccc1Nc1ncc(Br)s1` [5-bromo-N-(2-methylphenyl)-1,3-thiazol-2-amine] reads 5.52; that for `Brc1cnc(NCCc2ccccc2)s1` [5-bromo-N-(2-phenylethyl)-1,3-thiazol-2-amine], under 5.00.
Same read-out and setting: the result for `Clc1ccc(Nc2ncc(Br)s2)cc1Cl` [5-bromo-N-(3,4-dichlorophenyl)-1,3-thiazol-2-amine] reads under 5.00.
The compound `Clc1cc(Cl)cc(Nc2ncc(Br)s2)c1` [5-bromo-N-(3,5-dichlorophenyl)-1,3-thiazol-2-amine] had a pIC50 of under 5.00.
Consider `Cc1cc(C)cc(Nc2ncc(Br)s2)c1` [5-bromo-N-(3,5-dimethylphenyl)-1,3-thiazol-2-amine], for which the pIC50 is under 5.00.
Same read-out and setting: the result for `Fc1cccc(Nc2ncc(Br)s2)c1` [5-bromo-N-(3-fluorophenyl)-1,3-thiazol-2-amine] reads 5.03.
With `COc1cccc(Nc2ncc(Br)s2)c1` [5-bromo-N-(3-methoxyphenyl)-1,3-thiazol-2-amine], the negative-log IC50 (pIC50) was 6.05.
`Cc1cccc(Nc2ncc(Br)s2)c1` [5-bromo-N-(3-methylphenyl)-1,3-thiazol-2-amine]: the pIC50 was 5.96. This pIC50 and that of the compound before are within 0.2 log units of each other.
Regarding `Brc1ccc(Nc2ncc(Br)s2)cc1` [5-bromo-N-(4-bromophenyl)-1,3-thiazol-2-amine], for the setting “pH 7, 22 °C”, the pIC50 was 5.54.
As to `Clc1ccc(Nc2ncc(Br)s2)cc1` [5-bromo-N-(4-chlorophenyl)-1,3-thiazol-2-amine], the negative-log IC50 (pIC50) (pH 7, 22 °C) is 5.52.
Same read-out and setting: the result for `CN(c1ccc(F)cc1)c1ncc(Br)s1` [5-bromo-N-(4-fluorophenyl)-N-methyl-1,3-thiazol-2-amine] reads under 5.00; that for `Brc1cnc(Nc2ccc(I)cc2)s1` [5-bromo-N-(4-iodophenyl)-1,3-thiazol-2-amine], under 5.00; that for `COc1ccc(Nc2ncc(Br)s2)cc1` [5-bromo-N-(4-methoxyphenyl)-1,3-thiazol-2-amine], 5.77.
Same read-out and setting: the result for `Cc1ccc(Nc2ncc(Br)s2)cc1` [5-bromo-N-(4-methylphenyl)-1,3-thiazol-2-amine] reads 5.55; that for `O=[N+]([O-])c1ccc(Nc2ncc(Br)s2)cc1` [5-bromo-N-(4-nitrophenyl)-1,3-thiazol-2-amine], 4.89.
The same measure, in the same setting: the result for `Brc1cnc(Nc2ccc(Oc3ccccc3)cc2)s1` [5-bromo-N-(4-phenoxyphenyl)-1,3-thiazol-2-amine] reads 5.85.
The compound `Brc1cnc(Nc2cccc3ccccc23)s1` [5-bromo-N-(naphthalen-1-yl)-1,3-thiazol-2-amine] gave a negative logarithm of the IC50 (pIC50) of 5.30.
On the same count and under the same terms, for `Brc1cnc(Nc2ccccn2)s1` [5-bromo-N-(pyridin-2-yl)-1,3-thiazol-2-amine] the value was 5.70.
Still for that read-out and setting: the result for `Brc1cnc(Nc2cccnc2)s1` [5-bromo-N-(pyridin-3-yl)-1,3-thiazol-2-amine] reads 5.44; that for `Brc1cnc(Nc2ccncc2)s1` [5-bromo-N-(pyridin-4-yl)-1,3-thiazol-2-amine], 5.11; that for `FC(F)(F)c1ccccc1Nc1ncc(Br)s1` [5-bromo-N-[2-(trifluoromethyl)phenyl]-1,3-thiazol-2-amine], under 5.00.
The same measure, in the same setting: for `CSc1cccc(Nc2ncc(Br)s2)c1` [5-bromo-N-[3-(methylsulfanyl)phenyl]-1,3-thiazol-2-amine] the value was 6.30; for `FC(F)(F)c1cccc(Nc2ncc(Br)s2)c1` [5-bromo-N-[3-(trifluoromethyl)phenyl]-1,3-thiazol-2-amine], 5.00.
In the case of `Brc1cnc(Nc2ccc(Oc3ccncc3)cc2)s1` [5-bromo-N-[4-(pyridin-4-yloxy)phenyl]-1,3-thiazol-2-amine], the pIC50 (pH 7, 22 °C) is 6.05.
Same read-out and setting: for `FC(F)(F)Oc1ccc(Nc2ncc(Br)s2)cc1` [5-bromo-N-[4-(trifluoromethoxy)phenyl]-1,3-thiazol-2-amine] the value was 4.76.
Still for that read-out and setting: the result for `FC(F)(F)c1ccc(Nc2ncc(Br)s2)cc1` [5-bromo-N-[4-(trifluoromethyl)phenyl]-1,3-thiazol-2-amine] reads 5.62.
`Brc1cnc(Nc2ccccc2)s1` [5-bromo-N-phenyl-1,3-thiazol-2-amine] had a negative-log IC50 (pIC50) (pH 7, 22 °C) of 5.96.
On the same count and under the same terms, for `Fc1ccc(Nc2ncc(Cl)s2)cc1` [5-chloro-N-(4-fluorophenyl)-1,3-thiazol-2-amine] the value was 5.96.
In the case of `N#Cc1cnc(Nc2ccccn2)s1` [ACS Chemical Biology 3180 Compound 63], the negative-log IC50 (pIC50) was 5.60.
